Laboratory results from US20090275727A1, “Peptide turn mimetics” (MIMETICA PTY LIMITED, priority 1998, published 2009).
Where two headings read alike, the source gives them in different places. Where a SMILES comes first, the peptide text is derived from it.

Assays:
[1] = Variable temperature CD, thermal denaturation of secondary structure; assay type: physicochemical
Experimental: CD experiments were performed on a Jasco Model J-810 spectropolarimeter, which was routinely calibrated with (1S)-(+)-10-camphorsulfonic acid at a concentration of 0.06% (w/v). Experiments were performed at 25° C. using a 0.1 cm cell, a scan speed of 10 nm/min from 260 to 180 nm, with a resolution of 1 nm and a response time of 0.25 s. The spectra were averaged over 5 scans, baseline subtracted from the corresponding blank conditions, and smoothed using the Savitsky-Golay smoothing algorithm (Savitsky, A. and Golay, M. J. E., 1964, Anal. Chem, 36, 1627-1639) to reduce noise. The samples were dissolved in 10 mM phosphate buffer, measured as pH 7.4, and when required the appropriate volume of TFE was added to adjust to 30% TFE. The concentration of the samples of peptides incorporating Helix Mimetic A (galanin 1-16 analogs) were determined using the Beer-Lambert Law by measuring the absorbance of the samples at 280 nm and using a molar extinction co-efficient of ε280=6620 M^−1cm^−1 (ε280 of Galanin 1-30, contains same number of Trp and Tyr as Galanin 1-16). The concentration of the samples of peptides incorporating Helix Mimetic B (Temporin A analogs) samples and the pentapeptide 13-membered ring Helix Mimetic A and B samples were determined by quantitative RP-HPLC against a standard of known concentration. All samples were between 40-200 μM, and CD spectra were recorded at a range of concentrations to check that sample aggregation was not occurring. Raw CD data was recorded in raw ellipticity units and converted to mean ellipticity per mole using the equation [θ]=θ/(10×c×l), where c is the sample concentration (M) and l is the cell path length (cm). Data was not converted to mean peptide molar ellipticity per residue as for compounds containing the covalent ethyl-bridge hydrogen bond replacement it is unclear how many “natural” peptide units to count in these calculations. Variable temperature CD experiments were carried using a CDF-426/L Peltier type CD/Fluorescence simultaneous measurement attachment, and samples were equilibrated for 10 min once the desired temperature was reached.
CD spectroscopy (as outlined in Example K) was conducted on the Galanin(1-16) reference linear peptide 231 and the Galanin(1-16) helix mimetics 232a and 232b in 10 mM phosphate buffer (pH 7.4) and in 10 mM phosphate buffer with 30% TFE added (see FIG. 8). […] The CD spectra of […] in both buffer and buffer with TFE. […] Further CD experiments examined the thermal denaturation secondary structure stability of Gal(1-16) 231 and (S)-Gal(1-16) helix mimetic 232b were investigated by thermal denaturation experiments (FIG. 9). […]

[2] = Solubility in water noted when preparing the NMR sample; assay type: physicochemical; settings: NMR run in 1:9 d3-TFE:H2O instead
Experimental: To a solution of Ac-GY(tBu)LLG-OMe 229 (58 mg, 0.09 mmol) in dichloromethane (2 mL) was added TFA (2 mL) and the solution stirred at rt for 1 h. The volatiles were removed under reduced pressure, and the residue dissolved in acetonitrile (1 mL) and water (1 mL). This solution was purified by preparative HPLC, to give the purified peptide 230 (12.6 mg) as a white solid. [M+H]^+=578.8; Analytical HPLC (0-40% B over 40 min, mL/min, 214 nm): tR=25.51 min; ^1H NMR, 600 MHz, 1:9 d3-TFE:H2O. Consistent with structure.

Galanin GAL2 = target: T1, Galanin GAL2 (Homo sapiens, UniProt O43603); assay: Galanin radioligand binding competitive assay, GAL2 (125I galanin human, recombinant CHO-K1 cells); settings: 0.02 nM 125I Galanin (human); for inhibition at 0.1 µM: 100 nM peptide, read-out: GAL2 % inhib at 100 nM; for inhibition at 1 µM: 1 1000 nM peptide (so in the source), read-out: GAL2 % inhib at 1 1000 nM
T1 construct: expressed in transfected cells; host or cells: CHO-K1
T1 sequence (O43603 1-387): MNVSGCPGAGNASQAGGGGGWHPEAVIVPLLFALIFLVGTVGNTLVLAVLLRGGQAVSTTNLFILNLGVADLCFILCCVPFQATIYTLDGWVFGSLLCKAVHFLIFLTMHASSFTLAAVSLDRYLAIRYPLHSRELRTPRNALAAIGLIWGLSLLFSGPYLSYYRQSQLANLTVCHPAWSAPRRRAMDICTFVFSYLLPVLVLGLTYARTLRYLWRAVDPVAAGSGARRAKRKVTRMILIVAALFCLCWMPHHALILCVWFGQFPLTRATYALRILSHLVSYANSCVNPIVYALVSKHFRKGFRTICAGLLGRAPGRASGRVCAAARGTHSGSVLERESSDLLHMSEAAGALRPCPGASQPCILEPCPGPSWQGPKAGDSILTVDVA
Experimental: (§1) Galanin(1-16) Linear Reference Peptide 231, Galanin(1-16) Analog Incorporating (R)-Helix Pentapeptide Mimetic A 232a and Galanin(1-16) Analog Incorporating (S)-Helix Pentapeptide Mimetic A 232b were tested for binding affinity to the Galanin-1 and Galanin-2 receptors using a radioligand binding competitive assay (Heuillet E, Bouaiche Z, Menager J, Dugay P, Munoz N, Dubois H, Amiranoff B, Crespo A, Lavayre J, Blanchard J C, Doble A; Eur J. Pharmacol., 1994, 269, 139-147. Bloomquist B T, Beauchamp M R, Zhelnin L, Brown S E, Biochem Biophys Res Comm., 1998, 243, 474-479.) Human recombinant HEK-293 cells were used as the source of Galanin GAL1, and samples tested against competitive binding with 0.012 nM ^125I Galanin (porcine). DMSO was used as the vehicle, and the incubation buffer consisted of 10 mM HEPES-NaOH, pH 7.4, 1 mM EDTA, 0.5% BSA, 0.01% Bacitracin. Human recombinant CHO-K1 cells were used as the source of Galanin GAL2, and samples tested against competitive binding with 0.02 nM ^125I Galanin (human).

Galanin GAL1 = target: T2, Galanin GAL1 (Homo sapiens, UniProt P47211); assay: Galanin radioligand binding competitive assay, GAL1 (125I galanin porcine, recombinant HEK-293 cells); settings: 0.012 nM 125I Galanin (porcine), human recombinant HEK-293; for inhibition at 0.01 µM: 10 nM peptide, read-out: GAL1 % inhib at 10 nM; for inhibition at 0.1 µM: 100 nM peptide, read-out: GAL1 % inhib at 100 nM
T2 construct: expressed in transfected cells; host or cells: HEK-293
T2 sequence (P47211 1-349): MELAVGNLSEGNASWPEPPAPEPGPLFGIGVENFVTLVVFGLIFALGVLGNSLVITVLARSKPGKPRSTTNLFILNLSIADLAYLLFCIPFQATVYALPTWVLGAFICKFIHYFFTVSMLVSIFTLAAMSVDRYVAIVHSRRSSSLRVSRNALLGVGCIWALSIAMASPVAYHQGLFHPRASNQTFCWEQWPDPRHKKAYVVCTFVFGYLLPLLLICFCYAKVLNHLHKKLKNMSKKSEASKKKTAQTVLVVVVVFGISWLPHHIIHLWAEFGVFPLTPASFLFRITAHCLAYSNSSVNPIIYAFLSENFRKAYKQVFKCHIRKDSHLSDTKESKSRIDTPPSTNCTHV
Experimental: as §1

[3] = Rat plasma stability of galanin peptides (LC/MS); assay type: in vitro ADME; settings: for remaining at 2 min, 500 ng/mL / remaining at 4 h, 500 ng/mL: male, Sprague Dawley
Experimental: Rat plasma was obtained freshly from male Sprague Dawley rats. The stock solutions for the samples Galanin(1-16) Linear Reference Peptide 231, Galanin(1-16) Analog Incorporating (R)-Helix Pentapeptide Mimetic A 232a and Galanin(1-16) Analog Incorporating (S)-Helix Pentapeptide Mimetic A 232b were prepared in 1:1 v:v acetonitrile/water at a concentration of 1 mg/mL. This stock solution was further diluted using 1:1 v:v acetonitrile/water to give a spiking solution with a nominal concentration of 50 μg/mL. For each compound, an aliquot (1485 μL) of rat plasma (maintained at 37° C.) was spiked with 15 μL of the spiking stock to give a nominal plasma concentration of 500 ng/mL. […] Samples were quenched by snap freezing in dry-ice. The concentration of the parent compound (Gal 231, Gal R 232a, Gal S 232b) was determined by LC/MS on a Micromass Quattro Premier triple-quadrupole instrument. The percentage of the parent compound remaining at each time point was calculated relative to the concentrations observed in the spiking control samples.

[4] = pH 7.4, 30% TFE in phosphate buffer, 5-75° C.

SMILES	Thermal stability of secondary structure (variable temperature CD) [1, 4]	inhibition at 0.1 µM (Galanin GAL2)	inhibition at 1 µM (Galanin GAL2)	inhibition at 0.01 µM (Galanin GAL1)	inhibition at 0.1 µM (Galanin GAL1)	Time after spiking until concentration is below the limit of quantitation [3]	remaining at 2 min, 500 ng/mL ([3]; rat, plasma)	Percent remaining at end of 240 min incubation compared with 10 (linear Gal(1-16)) ([3]; rat, plasma, 4 h)	Thermal stability of secondary structure (variable temperature CD) ([1]; pH 7.4)	further results
CC[C@H](C)[C@H](NC(=O)[C@H](CC(C)C)NC(=O)C1CCCN1C(=O)[C@H](CC(C)C)NC(=O)[C@@H](N)Cc1ccccc1)C(=O)NCC(=O)N[C@@H](CCCNC(=N)N)C(=O)NCC(=O)N[C@@H](CC(C)C)C(=O)N[C@@H](CO)C(=O)NCC(=O)N[C@@H](CC(C)C)C(=O)N[C@@H](CC(C)C)C(N)=O (stereo partly drawn) [Compound 234, FLPLIGRGLSGLL-NH2, reference compound]	increase in 222 nm absorbance as temperature increases, indicative of the helix unwinding									
COC(=O)CNC(=O)[C@H](CC(C)C)NC(=O)[C@H](CC(C)C)NC(=O)[C@H](Cc1ccc(O)cc1)NC(=O)CNC(C)=O [Compound 230, Ac-GYLLG-OMe] (HELM PEPTIDE1{[ac].G.Y.L.L.G.[CO[*:1]]}$$$$V2.0)										Solubility in H2O [2]: not soluble in H2O
CC(C)C[C@@H]1NC(=O)[C@H](Cc2ccc(O)cc2)N[C@H](CNC(=O)[C@H](C)NC(=O)[C@H](CO)NC(=O)[C@H](CC(N)=O)NC(=O)[C@H](CC(C)C)NC(=O)[C@@H](NC(=O)[C@H](Cc2c[nH]c3ccccc23)NC(=O)CN)[C@@H](C)O)CCN(CC(=O)N2CCC[C@H]2C(=O)N[C@@H](CC2C=NC=N2)C(=O)N[C@@H](C)C(=O)N[C@H](C(N)=O)C(C)C)C(=O)[C@H](CC(C)C)NC1=O (stereo partly drawn) [Gal S 232b]		2%	6%	2%	18%	≤ 30 min	44.8%	significantly higher	excellent structural stability at elevated temperatures	remaining at 4 h, 500 ng/mL ([3]; rat, plasma): 31.3%
CC(C)C[C@@H]1NC(=O)[C@H](Cc2ccc(O)cc2)N[C@@H](CNC(=O)[C@H](C)NC(=O)[C@H](CO)NC(=O)[C@H](CC(N)=O)NC(=O)[C@H](CC(C)C)NC(=O)[C@@H](NC(=O)[C@H](Cc2c[nH]c3ccccc23)NC(=O)CN)[C@@H](C)O)CCN(CC(=O)N2CCC[C@H]2C(=O)N[C@@H](CC2C=NC=N2)C(=O)N[C@@H](C)C(=O)N[C@H](C(N)=O)C(C)C)C(=O)[C@H](CC(C)C)NC1=O (stereo partly drawn) [Gal R 232a]		6%	36%	8%	37%	≤ 30 min	50%	significantly higher		% Compound remaining at 4° C. ([3]; rat, plasma, 4 h): 31.3%
CC(C)C[C@H](NC(=O)[C@H](CC(C)C)NC(=O)[C@H](Cc1ccc(O)cc1)NC(=O)CNC(=O)[C@H](C)NC(=O)[C@H](CO)NC(=O)[C@H](CC(N)=O)NC(=O)[C@H](CC(C)C)NC(=O)[C@@H](NC(=O)[C@H](Cc1c[nH]c2ccccc12)NC(=O)CN)[C@@H](C)O)C(=O)NCC(=O)N1CCC[C@H]1C(=O)N[C@@H](CC1C=NC=N1)C(=O)N[C@@H](C)C(=O)N[C@H](C(N)=O)C(C)C (stereo partly drawn) [Gal (1-16) 231, GWTLNSAGYLLGPHAV-NH2, reference compound]	decreased peptide secondary structure with increased temperature	92%	101%	85%	96%					remaining at 4 h, 500 ng/mL ([3]; rat plasma, 4° C., 240 min, read-out: % Compound remaining at 4° C.): 6.2%; remaining at 2 min, 500 ng/mL ([3]; rat plasma, 37° C., 2 min, nominal 500 ng/mL, read-out: % Compound remaining at 37° C.): 30.2%
CC[C@H](C)[C@H](NC(=O)[C@H](CC(C)C)NC(=O)C1CCCN1C(=O)[C@H](CC(C)C)NC(=O)[C@@H](N)Cc1ccccc1)C(=O)NCC(=O)N[C@@H](CCCNC(=N)N)C(=O)NC[C@@H]1CCN([C@@H](CC(C)C)C(=O)N[C@@H](CC(C)C)C(N)=O)C(=O)CNC(=O)[C@H](CO)NC(=O)[C@H](CC(C)C)N1 (stereo partly drawn) [Compound 235b]									remarkable thermal stability	
